Patent US10770169B2, “Method of providing a treatment to a subject based on a dynamic pathway map” (THE REGENTS OF THE UNIVERSITY OF CALIFORNIA, priority 2010, dated 2020)
Like-named read-outs stand apart in the source and are kept apart here.

Columns and labels:
Type in all cases: cell-based, human
[1] = test system: breast cancer cell lines with aberrant vs normal copy number; experiment: Association of recurrent copy number changes and response (t-test on GI50); conditions: FDR p<0.2
Summary of the method: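 A t-test compared GI50 between cell lines with high amplification at 8q24 (MYC), 11q13 (CCND1) or 20q13 (STK15/AURKA) and lines with low or no amplification, grouped together. Lines whose GI50 equalled the maximum concentration tested were excluded. Compounds with any group under five samples were also excluded.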

[2] = test system: luminal, basal, claudin-low and ERBB2AMP breast cancer cell lines; experiment: Associations of clinically relevant subtypes and response (non-parametric ANOVA or t-test on GI50 ranks)
Summary of the method: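 GI50 values were compared between cell-line subtype groups by non-parametric ANOVA or t-test on ranks. P-values from three test sets were combined and FDR-corrected. Significant three-group effects were followed by post-hoc comparison of each group against all others, and FDR p<0.20 counted as significant.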

[3] = test system: panel of 55 breast cancer cell lines; experiment: Cell growth inhibition assay (Cell Titer Glo, 72 h, 9 doses; GI50, TGI, LC50); conditions: Homo sapiens, read-out: GI50 (converted)

Question: For C/C(=C\c1csc(C)n1)[C@@H]1C[C@@H]2O[C@]2(C)CCC[C@H](C)[C@H](O)[C@@H](C)C(=O)C(C)(C)[C@@H](O)CC(=O)N1 [Ixabepilone], which “association of response with homozygous deletion at 9p21 (CDKN2A)” value [1] is on record?
Answer: associated with response

Question: What about the “subtype-specific response (sensitivity by transcriptional subtype)” value ([2]; GI50 across subtypes) of the same molecule?
Answer: more active against basal and claudin-low cell lines

Question: What about the Subtype specificity ([2]; Table 6, most sensitive subtype, FDR p<0.20) of the same molecule?
Answer: Basal + Claudin-low

Question: And the GI50 ([3]; 600MPE cell line, censored GI50 values)?
Answer: 5250 nM

Question: And the GI50 ([3]; AU565, AU565 cell line, censored GI50 values)?
Answer: 4.27 nM

Question: What about the GI50 ([3]; AU565, cell line AU565) of the same molecule?
Answer: 4.27 nM

Question: What about the GI50 ([3]; BT-20, BT20 cell line, censored GI50 values) of the same molecule?
Answer: 8.13 nM

Question: And the GI50 ([3]; BT-20, cell line BT20)?
Answer: 8.13 nM

Question: And the GI50 ([3]; BT-474, BT474 cell line, censored GI50 values)?
Answer: 8.32 nM

Question: And the GI50 ([3]; BT-474, cell line BT474)?
Answer: 8.32 nM

Question: What about the GI50 ([3]; BT-483, BT483 cell line, censored GI50 values) of the same molecule?
Answer: 5370 nM

Question: What about the GI50 ([3]; BT-483, cell line BT483) of the same molecule?
Answer: 5370 nM

Question: And the GI50 ([3]; BT-549, BT549 cell line, censored GI50 values)?
Answer: 6.03 nM

Question: What about the GI50 ([3]; BT-549, cell line BT549) of the same molecule?
Answer: 6.03 nM

Question: What about the GI50 ([3]; CAMA-1, CAMA1 cell line, censored GI50 values) of the same molecule?
Answer: 1 nM

Question: And the GI50 ([3]; CAMA-1, cell line CAMA1)?
Answer: 1 nM

Question: What about the GI50 ([3]; HCC38, HCC38 cell line, censored GI50 values) of the same molecule?
Answer: 2.82 nM

Question: What about the GI50 ([3]; HCC38, cell line HCC38) of the same molecule?
Answer: 2.82 nM

Question: And the GI50 ([3]; HCC70, HCC70 cell line, censored GI50 values)?
Answer: 1.41 nM

Question: What about the GI50 ([3]; HCC70, cell line HCC70) of the same molecule?
Answer: 1.41 nM

Question: And the GI50 ([3]; HCC202, HCC202 cell line, censored GI50 values)?
Answer: 20000 nM

Question: And the GI50 ([3]; HCC202, cell line HCC202)?
Answer: 20000 nM

Question: And the GI50 ([3]; HCC1143, HCC1143 cell line, censored GI50 values)?
Answer: 9.77 nM

Question: What about the GI50 ([3]; HCC1143, cell line HCC1143) of the same molecule?
Answer: 9.77 nM

Question: What about the GI50 ([3]; HCC1187, HCC1187 cell line, censored GI50 values) of the same molecule?
Answer: 2.19 nM

Question: And the GI50 ([3]; HCC1187, cell line HCC1187)?
Answer: 2.19 nM

Question: And the GI50 ([3]; HCC1395, HCC1395 cell line, censored GI50 values)?
Answer: 12 nM

Question: What about the GI50 ([3]; HCC1395, cell line HCC1395) of the same molecule?
Answer: 12 nM

Question: And the GI50 ([3]; HCC1419, HCC1419 cell line, censored GI50 values)?
Answer: 11000 nM

Question: What about the GI50 ([3]; HCC1419, cell line HCC1419) of the same molecule?
Answer: 11000 nM

Question: And the GI50 ([3]; HCC1428, HCC1428 cell line, censored GI50 values)?
Answer: 58.9 nM

Question: What about the GI50 ([3]; HCC1428, cell line HCC1428) of the same molecule?
Answer: 58.9 nM

Question: And the GI50 ([3]; HCC1500, HCC1500 cell line, censored GI50 values)?
Answer: 3.24 nM

Question: What about the GI50 ([3]; HCC1500, cell line HCC1500) of the same molecule?
Answer: 3.24 nM

Question: And the GI50 ([3]; HCC1806, HCC1806 cell line, censored GI50 values)?
Answer: 4.9 nM

Question: What about the GI50 ([3]; HCC1806, cell line HCC1806) of the same molecule?
Answer: 4.9 nM

Question: What about the GI50 ([3]; HCC1937, HCC1937 cell line, censored GI50 values) of the same molecule?
Answer: 309 nM

Question: And the GI50 ([3]; HCC1937, cell line HCC1937)?
Answer: 309 nM

Question: And the GI50 ([3]; HCC1954, HCC1954 cell line, censored GI50 values)?
Answer: 1.95 nM

Question: What about the GI50 ([3]; HCC1954, cell line HCC1954) of the same molecule?
Answer: 1.95 nM

Question: And the GI50 ([3]; HCC2185 cell line, censored GI50 values)?
Answer: 9120 nM

Question: And the GI50 ([3]; HCC3153 cell line, censored GI50 values)?
Answer: 6.17 nM

Question: What about the GI50 ([3]; LY2 cell line, censored GI50 values) of the same molecule?
Answer: 6.03 nM

Question: And the GI50 ([3]; MCF7, MCF7 cell line, censored GI50 values)?
Answer: 0.363 nM

Question: And the GI50 ([3]; MCF7, cell line MCF7)?
Answer: 0.363 nM

Question: And the GI50 ([3]; MDA-MB-134-VI, MDAMB134VI cell line, censored GI50 values)?
Answer: 1.62 nM

Question: And the GI50 ([3]; MDA-MB-157, MDAMB157 cell line, censored GI50 values)?
Answer: 4.9 nM

Question: What about the GI50 ([3]; MDA-MB-157, cell line MDAMB157) of the same molecule?
Answer: 4.9 nM

Question: And the GI50 ([3]; MDA-MB-231, MDAMB231 cell line, censored GI50 values)?
Answer: 0.457 nM

Question: What about the GI50 ([3]; MDA-MB-231, cell line MDAMB231) of the same molecule?
Answer: 0.457 nM

Question: And the GI50 ([3]; MDA-MB-361, MDAMB361 cell line, censored GI50 values)?
Answer: 2.29 nM

Question: And the GI50 ([3]; MDA-MB-361, cell line MDAMB361)?
Answer: 2.29 nM

Question: And the GI50 ([3]; MDA-MB-415, MDAMB415 cell line, censored GI50 values)?
Answer: 8.13 nM

Question: What about the GI50 ([3]; MDA-MB-415, cell line MDAMB415) of the same molecule?
Answer: 8.13 nM

Question: What about the GI50 ([3]; MDA-MB-436, MDAMB436 cell line, censored GI50 values) of the same molecule?
Answer: 5.75 nM

Question: And the GI50 ([3]; MDA-MB-436, cell line MDAMB436)?
Answer: 5.75 nM

Question: And the GI50 ([3]; MDA-MB-453, MDAMB453 cell line, censored GI50 values)?
Answer: 7.76 nM

Question: And the GI50 ([3]; MDA-MB-453, cell line MDAMB453)?
Answer: 7.76 nM

Question: What about the GI50 ([3]; MDA-MB-468, MDAMB468 cell line, censored GI50 values) of the same molecule?
Answer: 1.32 nM

Question: What about the GI50 ([3]; MDA-MB-468, cell line MDAMB468) of the same molecule?
Answer: 1.32 nM

Question: And the GI50 ([3]; SK-BR-3, SKBR3 cell line, censored GI50 values)?
Answer: 10.5 nM

Question: What about the GI50 ([3]; SK-BR-3, cell line SKBR3) of the same molecule?
Answer: 10.5 nM

Question: And the GI50 ([3]; SUM52PE, SUM52PE cell line, censored GI50 values)?
Answer: 2.95 nM

Question: What about the GI50 ([3]; SUM52PE, cell line SUM52PE) of the same molecule?
Answer: 2.95 nM

Question: And the GI50 ([3]; SUM149PT, SUM149PT cell line, censored GI50 values)?
Answer: 5.5 nM

Question: And the GI50 ([3]; SUM149PT, cell line SUM149PT)?
Answer: 5.5 nM

Question: What about the GI50 ([3]; SUM185PE, SUM185PE cell line, censored GI50 values) of the same molecule?
Answer: 8.51 nM

Question: And the GI50 ([3]; SUM185PE, cell line SUM185PE)?
Answer: 8.51 nM

Question: What about the GI50 ([3]; SUM225CWN, SUM225CWN cell line, censored GI50 values) of the same molecule?
Answer: 20000 nM

Question: What about the GI50 ([3]; SUM225CWN, cell line SUM225CWN) of the same molecule?
Answer: 20000 nM

Question: And the GI50 ([3]; SUM1315MO2, SUM1315MO2 cell line, censored GI50 values)?
Answer: 6.03 nM

Question: And the GI50 ([3]; SUM-159-PT, SUM159PT cell line, censored GI50 values)?
Answer: 6.92 nM

Question: And the GI50 ([3]; SUM-159-PT, cell line SUM159PT)?
Answer: 6.92 nM

Question: What about the GI50 ([3]; T47D, T47D cell line, censored GI50 values) of the same molecule?
Answer: 7.94 nM

Question: And the GI50 ([3]; T47D, cell line T47D)?
Answer: 7.94 nM

Question: What about the GI50 ([3]; UACC-812, UACC812 cell line, censored GI50 values) of the same molecule?
Answer: 5890 nM

Question: What about the GI50 ([3]; UACC-812, cell line UACC812) of the same molecule?
Answer: 5890 nM

Question: What about the GI50 ([3]; UACC-893, UACC893 cell line, censored GI50 values) of the same molecule?
Answer: 6.31 nM

Question: What about the GI50 ([3]; UACC-893, cell line UACC893) of the same molecule?
Answer: 6.31 nM

Question: What about the GI50 ([3]; ZR-75-1, ZR751 cell line, censored GI50 values) of the same molecule?
Answer: 295 nM

Question: And the GI50 ([3]; ZR-75-1, cell line ZR751)?
Answer: 295 nM

Question: What about the GI50 ([3]; cell line 600MPE) of the same molecule?
Answer: 5250 nM

Question: What about the GI50 ([3]; cell line HCC2185) of the same molecule?
Answer: 9120 nM

Question: What about the GI50 ([3]; cell line HCC3153) of the same molecule?
Answer: 6.17 nM

Question: What about the GI50 ([3]; cell line LY2) of the same molecule?
Answer: 6.03 nM

Question: And the GI50 ([3]; cell line MDAMB134V)?
Answer: 1.62 nM

Question: And the GI50 ([3]; cell line SUM1315MO)?
Answer: 6.03 nM
